{"source": "patent US20230128252A1", "about": "“PHARMACEUTICAL COMPOSITIONS” (Shenzhen Pharmacin Co., Ltd., priority 2020, published 2023)", "key": {"[1]": {"assay": "Solubility of clofazimine in various solvents", "conditions": "25 °C, thermodynamic from solid", "method": "Clofazimine was added to various solvents (2-5 mL) in a 10 mL glass vial, at 25° C., with stirring. […] This cycle was repeated until no further dissolution was observable. The suspension was then centrifuged and the supernatant filtered by microfiltration."}, "[2]": {"biological_target": "Kv1.3 channels in human Jurkat E6-1 cells (Homo sapiens, UniProt P22001)", "sequence (P22001 whole entry)": "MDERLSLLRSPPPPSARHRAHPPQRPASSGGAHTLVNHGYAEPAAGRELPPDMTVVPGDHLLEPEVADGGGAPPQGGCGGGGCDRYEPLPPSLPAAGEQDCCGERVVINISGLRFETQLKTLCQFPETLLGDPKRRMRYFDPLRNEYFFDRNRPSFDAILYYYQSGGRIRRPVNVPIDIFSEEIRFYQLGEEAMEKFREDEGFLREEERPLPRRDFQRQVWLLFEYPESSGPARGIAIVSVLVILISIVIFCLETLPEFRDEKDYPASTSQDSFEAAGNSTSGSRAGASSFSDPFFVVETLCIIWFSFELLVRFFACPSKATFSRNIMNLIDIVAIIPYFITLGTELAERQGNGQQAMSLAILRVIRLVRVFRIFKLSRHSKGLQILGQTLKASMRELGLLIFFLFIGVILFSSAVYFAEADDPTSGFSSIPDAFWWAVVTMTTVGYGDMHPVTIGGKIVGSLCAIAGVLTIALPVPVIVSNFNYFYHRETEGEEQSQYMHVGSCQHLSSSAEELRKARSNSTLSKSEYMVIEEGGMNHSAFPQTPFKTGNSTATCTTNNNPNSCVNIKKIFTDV", "assay": "Inhibition of Kv1.3 channel current, voltage ramp protocol", "conditions": "for Inhibition ratio of Kv1.3 channel current in Jurkat E6-1 cells: n 3"}, "[3]": {"tested_on": "IL-2 secretion of activated Jurkat cells", "assay": "Inhibition of IL-2 secretion of activated Jurkat cells (ELISA)", "assay_type": "cell-based", "conditions": "1 μM, 3 μM, and 10 μM in DMSO; PMA+PHA activated; 24 h (FIG. 11)", "protocol": "In each group, Jurkat cells were incubated with corresponding formulation. After 24 h, the secretion of IL-2 was detected by ELISA."}, "[4]": {"assay": "pharmacokinetics and tissue distribution after single-dose topical application in minipigs", "assay_type": "in vivo, Bama minipigs", "conditions": "Formulation 11 (0.03%) single topical application", "protocol": "Studies were performed to evaluate the pharmacokinetics and tissue distribution after a single-dose topical application of Formulation 11 (clofazimine 0.03%) in Bama minipigs. 24 Bama minipigs were divided into 6 groups (n=4), each group of minipigs received a single topical application of Formulation 11 (0.03%) at a dose of 1.5 mg ointment/cm^2. Blood samples, epidermis, dermis, subcutaneous tissue and subcutaneous muscle were collected at 0.5, 4, 24, 48, 72 and 96 hours (one time point for one group) after drug application. A validated LC-MS/MS method was used to determine the concentration of clofazimine in plasma, epidermis, dermis, subcutaneous tissues and subcutaneous muscle and the pharmacokinetic parameters were calculated (the standard curve range of clofazimine is 0.0100˜10.0 ng/mL)."}}}
{"smiles": "CC(C)/N=c1\\cc2n(-c3ccc(Cl)cc3)c3ccccc3nc-2cc1Nc1ccc(Cl)cc1", "note": "[Clofazimine, N,5-bis(4-chlorophenyl)-3-propan-2-ylimino phenazin-2-amine]", "values": [{"measurement": "solubility at 24 h", "setting": "[1]; organic solvent or mixture", "result": 7480, "unit": "µg/mL"}, {"measurement": "solubility at 24 h", "setting": "[1]; solvent, oil or lipid, Solubility, Castor oil", "result": 11000, "unit": "µg/mL"}, {"measurement": "solubility at 24 h", "setting": "[1]; solvent, oil or lipid, Solubility, Coconut oil", "result": 5100, "unit": "µg/mL"}, {"measurement": "solubility at 24 h", "setting": "[1]; solvent, oil or lipid, Solubility, Corn oil", "result": 5800, "unit": "µg/mL"}, {"measurement": "solubility at 24 h", "setting": "[1]; solvent, oil or lipid, Solubility, Glyceryl monooleate", "result": 8860, "unit": "µg/mL"}, {"measurement": "solubility at 24 h", "setting": "[1]; solvent, oil or lipid, Solubility, Isopropyl myristate", "result": 8510, "unit": "µg/mL"}, {"measurement": "solubility at 24 h", "setting": "[1]; solvent, oil or lipid, Solubility, Soybean oil", "result": 5100, "unit": "µg/mL"}, {"measurement": "solubility at 24 h", "setting": "[1]; solvent, organic solvent or mixture, Solubility, Ethanol", "result": 950, "unit": "µg/mL"}, {"measurement": "solubility at 24 h", "setting": "[1]; solvent, organic solvent or mixture, Solubility, Glycerol", "result": 490, "unit": "µg/mL"}, {"measurement": "solubility at 24 h", "setting": "[1]; solvent, organic solvent or mixture, Solubility, Labrasol", "result": 25400, "unit": "µg/mL"}, {"measurement": "solubility at 24 h", "setting": "[1]; solvent, organic solvent or mixture, Solubility, Laurocapram", "result": 46700, "unit": "µg/mL"}, {"measurement": "solubility at 24 h", "setting": "[1]; solvent, organic solvent or mixture, Solubility, Oleic acid polyethylene glycol glyceride", "result": 12200, "unit": "µg/mL"}, {"measurement": "solubility at 24 h", "setting": "[1]; solvent, organic solvent or mixture, Solubility, PEG 400, 25° C.", "result": 9510, "unit": "µg/mL"}, {"measurement": "solubility at 24 h", "setting": "[1]; solvent, organic solvent or mixture, Solubility, Polyglycerol fatty acid ester", "result": 4960, "unit": "µg/mL"}, {"measurement": "solubility at 24 h", "setting": "[1]; solvent, organic solvent or mixture, Solubility, Polyoxyethylene hydrogenated castor oil", "result": 8670, "unit": "µg/mL"}, {"measurement": "solubility at 24 h", "setting": "[1]; solvent, organic solvent or mixture, Solubility, Propane 1,2-diol", "result": 420, "unit": "µg/mL"}, {"measurement": "solubility at 24 h", "setting": "[1]; solvent, organic solvent or mixture, Solubility, Transcutol", "result": 21600, "unit": "µg/mL"}, {"measurement": "solubility at 24 h", "setting": "[1]; solvent, organic solvent or mixture, Solubility, Tween 20, 25° C.", "result": 7400, "unit": "µg/mL"}, {"measurement": "solubility at 24 h", "setting": "[1]; solvent, organic solvent or mixture, Solubility, Tween 80, 25° C.", "result": 10100, "unit": "µg/mL"}, {"measurement": "IC50", "setting": "[2]", "result": 3.3, "unit": "µM"}, {"measurement": "Inhibition ratio of Kv1.3 channel current in Jurkat E6-1 cells", "setting": "[2]; 0.3 μM", "result": "7.09 ± 0.86", "unit": "%"}, {"measurement": "Inhibition ratio of Kv1.3 channel current in Jurkat E6-1 cells", "setting": "[2]; 1 μM", "result": "18.89 ± 3.38", "unit": "%"}, {"measurement": "Inhibition ratio of Kv1.3 channel current in Jurkat E6-1 cells", "setting": "[2]; 3 μM", "result": "46.84 ± 4.55", "unit": "%"}, {"measurement": "Inhibition ratio of Kv1.3 channel current in Jurkat E6-1 cells", "setting": "[2]; 10 μM", "result": "70.11 ± 2.91", "unit": "%"}, {"measurement": "Inhibition ratio of Kv1.3 channel current in Jurkat E6-1 cells", "setting": "[2]; 20 μM", "result": "83.62 ± 1.99", "unit": "%"}, {"measurement": "secretion of IL-2", "setting": "[3]", "result": "significantly inhibited"}, {"measurement": "median time to peak dermal concentration", "setting": "[4]", "result": "about 4 h"}, {"measurement": "median time to peak epidermal concentration", "setting": "[4]", "result": "about 0.5 h"}, {"measurement": "median time to peak subcutaneous muscle concentration", "setting": "[4]", "result": "about 0.5 h"}, {"measurement": "median time to peak subcutaneous tissues concentration", "setting": "[4]", "result": "about 4 h"}, {"measurement": "tissue distribution", "setting": "[4]", "result": "mainly distributed in the epidermis and dermis, and not absorbed into blood"}]}
